Experimental data as given in the SangsterLogP compilation.
Values belong to the compound of their own block, whether it stands above or below them.

Assays:
[1] = method code SF-GLC,RC, from DOI: 10.1016/0048-3575(73)90050-3
[2] = not given; remark: listed apart in the source
[3] = not given; remark: listed apart in the source
[4] = method code SF-CR+AS, from Korenman, Y. (1973). Extraction of guaiacol from aqueous solutions. Zh. Prikl. Khim., 46(6)1391-1394.; settings: pH 2.0
[5] = method code SF, from DOI: 10.1016/0005-2744(69)90103-x, PMID: 4387594
[6] = not given; remark: listed apart in the source
[7] = not given; remark: listed apart in the source
[8] = method code SF-AS, from Korenman, I.; Lineva, S.; Gezikova, N. (1978). Extraction of naphthol-sulfonic acids from aqueous solution. Zh. Prikl. Khim., 51(4)869-871.
[9] = method code SF-GLC, from DOI: 10.1021/je970020p
[10] = method code SF-AS, from Kosanovic, D.; Dumanovic, D.; Jovanovic, J. (1988). Solubility in octanol And the octanol-water partition coefficients of some 4(5)- and 5-nitroimidazoles. 53(10)559-563.
[11] = from Büchel, H.; Draber, W.; Trebst, A.; Pistorius, E. (1966). Inhibition of photosynthetic reactions in isolated chloroplasts by benzimidazole-type herbicides and their structure-activity relation, …; settings: pH 7.0
[12] = method code SF-GLC, from DOI: 10.1002/jps.2600641120, PMID: 1195116
[13] = not given; remark: listed apart in the source
[14] = not given; remark: listed apart in the source
[15] = method code SF, from DOI: 10.1016/j.tca.2016.07.020; settings: pH 7.4
[16] = not given; remark: listed apart in the source
[17] = pH 5.6
[18] = not given; remark: listed apart in the source
[19] = not given; remark: listed apart in the source
[20] = method code SF-AS, from DOI: 10.1016/0006-2952(74)90620-0, PMID: 4822742; settings: pH 7.4
[21] = not given; remark: listed apart in the source
[22] = not given; remark: listed apart in the source
[23] = method code SF-HPLC, from DOI: 10.1016/s0045-6535(01)00105-9, PMID: 11695583
[24] = method code SF, from DOI: 10.1021/jm00307a001, PMID: 5637185
[25] = not given; remark: listed apart in the source
[26] = not given; remark: listed apart in the source
[27] = method code SF, from DOI: 10.1248/yakushi1947.93.11_1452, PMID: 4273378
[28] = method code SF-AS, from Halmekoski, J.; Hannikainen, H. (1964). Rm values of hydroxy-substituted benzoic acids and partition coefficients of the acids between water and aliphatic alcohols. Suomen Kemist. B, 37, 221-226.
[29] = method code SF-TN, from DOI: 10.1085/jgp.71.1.93, PMID: 621494
[30] = from Tehrany, E.A.; Desobry, S. (2005). Comparison between the different calculation methods of partition coefficient of aroma compounds with a difference chemical classes in octanol/water system. …
[31] = method code SF-CR+AS, from Korenman, I.; Lineva, S.; Tishchenko, M. (1979). The influence of substituents on the extraction of phenols. Russ. J. Phys. Chem., 53(11)1678-1679.; settings: pH 2.5
[32] = method code SF, from DOI: 10.1016/0014-2999(70)90221-9, PMID: 5440297; settings: pH 7.4
[33] = method code SF-CR+AS, from Korenman, I.; Kotelyanskaya, B.; Nefedova, A. (1976). Extraction of mononitrophenols from aqueous solutions. Zh. Prikl. Khim., 49(5)1150-1152.
[34] = method code SF-AS, from DOI: 10.1016/s0045-6535(98)00368-3
[35] = method code SF-GLC, from DOI: 10.1016/s0021-9673(00)92516-0
[36] = method code SF-RI, from Korenman, M.; Dobromyslova, M. (1975). Distribution of cellosolves between organic solvents and water. Zh. Prikl. Khim., 48(12)2791-2794.
[37] = method code SF-CR+AS, from Korenman, Y. (1974). Extraction of 2-halophenols from aqueous solutions. Zh. Prikl. Khim., 47(7)1663-1666.
[38] = method code SF, from PMID: 8265709; settings: pH 7.4
[39] = method code SF, from DOI: 10.1016/s0960-894x(00)80094-3; settings: pH 7.4
[40] = method code SF, from DOI: 10.1016/j.ejps.2014.11.002, PMID: 25447745; settings: pH 7.4
[41] = method code SF-HPLC, from DOI: 10.1016/j.nucmedbio.2010.03.011, PMID: 20610161; settings: pH 7.4
[42] = method code SF-AS, from DOI: 10.1016/0045-6535(84)90003-1
[43] = method code SF-GLC, from DOI: 10.1021/ac00241a023
[44] = method code SF-RC, from DOI: 10.1111/j.2042-7158.1987.tb03173.x, PMID: 2886623
[45] = not given; remark: listed apart in the source
[46] = method code G-HPLC, from He, Y.; Zhao, Y.; Wang, L.; An, F.; Mo, H.; Yang, K.; Liu, Y.; Yu, G.; Xu, X. (1994). Determination of n-octanol/water partition coefficient of organic compound. Huanjing Huaxue, 13(3)195-197.
[47] = not given; remark: listed apart in the source
[48] = method code SF-AS, from DOI: 10.1016/s0022-3565(25)24763-2, PMID: 2019981; settings: pH 7.4
[49] = method code SF-AS, from DOI: 10.1016/0006-2952(65)90227-3, PMID: 14322976; settings: pH 6.8
[50] = method code SF-AS, from DOI: 10.1093/ajhp/38.9.1308, PMID: 7282713; settings: pH 7.4
[51] = method code SF-AS, from DOI: 10.1002/jps.2600671008, PMID: 702280; settings: pH 7.0

Compound: Oc1cccc(Cl)c1Cl
- logP: 2.98

Compound: ClCc1ccccc1
- logP [1]: 2.3

Compound: Oc1cc(Cl)c(Cl)cc1Cl
- logP [2]: 3.63

Compound: Oc1c(Br)cc(Br)cc1Br
- logP [3]: 4.24

Compound: Oc1cc(Br)ccc1Br
- logP [7]: 3.22

Compound: Clc1c(Cl)c(Cl)c(Cl)c(Cl)c1Cl
- logP [9]: 5.74

Compound: Clc1nc2c(Cl)c(Cl)c(Cl)c(Cl)c2[nH]1
- logD [11]: 4.53

Compound: C1CCc2nnnn2CC1
- logP [12]: 0.14

Compound: Oc1nc(Cl)c(Cl)cc1Cl
- logP [13]: 2.27

Compound: Oc1c(Cl)c(Cl)c(Cl)c(Cl)c1Cl
- logP [14]: 4.79

Compound: OCCC(F)(F)C(F)(F)C(F)(F)C(F)(F)F
- logP [22]: 3.28

Compound: C=CC(CC)OC(N)=O (configuration not stated)
- logP [24]: 1.09

Compound: Clc1ccc(Cl)cc1
- logP [25]: 3.48

Compound: Brc1ccc(Br)cc1
- logP [26]: 3.89

Compound: ClCc1ccc(Cl)cc1Cl
- logP [35]: 3.82

Compound: Oc1ccccc1I
- logP [37]: 2.64

Compound: Cn1c(=O)c2[nH]cnc2n(C)c1=O
- logD [38]: -0.18

Compound: O=[N+]([O-])O[C@H]1CO[C@H]2[C@@H]1OC[C@H]2O[N+](=O)[O-]
- logD [40]: 1.2

Compound: O=[N+]([O-])c1ncn(CC(O)CF)n1 (configuration not stated)
- logD [41]: -0.46

Compound: Oc1cc(Cl)cc(Cl)c1Cl
- logP [42]: 3.84

Compound: O=[N+]([O-])/C=C1\NCCCS1
- logP [45]: -0.4

Compound: Clc1ccccc1Cl
- logP [46]: 3.34

Compound: Cc1ncsc1CCCl
- logD [50]: 2.12

Other lines, results leading:

- logD [4]: 1.35
Compound: COc1ccccc1O

- logP [5]: 2.1
Compound: Nc1cccc(Br)c1

- logP [6]: 1.63
Compound: O=C(O)c1ccccc1F

- logP [8]: -0.22
Compound: CC1=C(C(N)=O)SCCO1

- logP [10]: 0.31
Compound: Cc1ncc([N+](=O)[O-])n1C

- logD [15]: 1.14
Compound: NC(=S)c1ccccn1

- logP [16]: 2.01
Compound: Cc1cccc(O)c1

- logD [17]: 0.82
Compound: NC(=O)c1ccc([N+](=O)[O-])cc1

- logP [18]: 0.39
Compound: CC(C)(C)OCCO

- logP [19]: 3.6
Compound: Oc1c(Cl)cc(Cl)c(Cl)c1O

- logD [20]: 0.18
Compound: O=S1(=O)N=CNc2ccccc21

- logP [21]: 1.41
Compound: CCCCCO

- logP [23]: 5
Compound: Brc1ccc(Br)c(Br)c1Br

- logP [27]: 0
Compound: CNC(=O)c1cccnc1

- logP [28]: 1.2
Compound: O=C(O)c1cccc(O)c1O

- logP [29]: 0.45
Compound: CCCC(O)C(=O)O (configuration not stated)

- logP [30]: 1.85
Compound: CCCCCC=O

- logD [31]: 1.71
Compound: Cc1cc(N=O)ccc1O

- logD [32]: -2.32
Compound: O=C[C@H](O)[C@H](O)[C@H](O)CO

- logP [33]: 1.95
Compound: O=[N+]([O-])c1ccc(O)cc1

- logP [34]: 0.96
Compound: COc1cc(OC)ncn1

- logP [36]: 0.05
Compound: CC(C)OCCO

- logD [39]: -3.42
Compound: C[C@@H]1CN(O)C(=O)[C@@H]1N

- logP [43]: 5.13
Compound: Brc1cc(Br)c(Br)cc1Br

- logP [44]: -2.47
Compound: OC[C@@H](O)[C@@H](O)[C@H](O)[C@H](O)CO (racemic)

- logP [47]: 0.57
Compound: CSc1ncnc2[nH]cnc12

- logD [48]: 0.08
Compound: CCn1cccc(O)c1=O

- logD [49]: 0.81
Compound: O=c1ccccc(O)c1

- logD [51]: 1.34
Compound: Clc1ccccn1
